What all share (type): cell-based
Assay [1] concerns Staphylococcus aureus NCIM 2079. The assay is described as follows: microbe, parasite or virus in culture. The conditions noted are these: Staphylococcus aureus NCIM 2079, 24 h at 37° C.
Assay [2] concerns Bacillus subtilis NCIM 2010. The experiment in a line: microbe, parasite or virus in culture. The settings on record: Bacillus subtilis NCIM 2010, 24 h at 37° C.
The subject of assay [3] is Escherichia coli NCIM 2065. The assay is described as follows: microbe, parasite or virus in culture. The conditions noted are these: Escherichia coli NCIM 2065, 24 h at 37° C.
The subject of assay [4] is Serratia marcescens NCIM 2919. The assay is described as follows: microbe, parasite or virus in culture. The settings on record: Serratia marcescens NCIM 2919, 24 h at 37° C.
Assay [5] has as its system Pseudomonas desmolyticum NCIM 2112. The assay is described as follows: microbe, parasite or virus in culture. The settings on record: Pseudomonas desmolyticum NCIM 2112, 24 h at 37° C.
Assay [6] relates to Mycobacterium smegmatis NCIM 5138. The assay is described as follows: microbe, parasite or virus in culture. The settings on record: Mycolicibacterium smegmatis, NCIM5138; Mycobacterium smegmatis NCIM 5138, 48 h.
The test system of assay [7] is Candida albicans NCIM 3557. The experiment in a line: Antifungal MIC, RPMI-1640, resazurin. The conditions noted are these: Candida albicans NCIM 3557, 48 to 72 h at 28° C. A general note: The colour change of resazurin is a common sign of viable cells or microbes.
Assay [8] concerns Fusarium verticillioides BIONCL4. The experiment in a line: Antifungal MIC, RPMI-1640, resazurin. The settings on record: Fusarium verticillioides BIONCL4, 48 to 72 h at 28° C.
In assay [9] the test system is Fusarium graminearum MTCC1893. The experiment in a line: microbe, parasite or virus in culture.
In assay [10] the test system is Aspergillus niger BIONCL 12. The experiment in a line: Antifungal MIC, RPMI-1640, resazurin. The settings on record: Aspergillus niger BIONCL 12, 48 to 72 h at 28° C.
For assay [11], the system named is Gram-positive and Gram-negative bacteria. The assay is described as follows: Antibacterial MIC, whole panel of tested strains. The conditions noted are these: span over all tested bacterial strains; read-out: MICs against tested bacterial strains.
A further assay concerns fungal strains tested. The assay is described as follows: microbe, parasite or virus in culture. The settings on record: Fusarium graminearum, read-out: MIC against the fungal strains tested.
[12] abbreviates: NCIM3557, read-out: MIC (converted).
Where [13] appears, read: Fusarium graminearum, MTCC1893, Fusarium graminearum MTCC1893, 48 to 72 h at 28° C.

In brackets after ≈: the same amount, converted by molar mass. Like-named read-outs stand apart in the source and are kept apart here.

Regarding `CC(C)(C)c1ccc(O)c(C(C)(C)C)c1` [C-1, 2,4-di-tert-butylphenol], the MIC was 6.25 µg/mL (≈ 30.3 µM) in assay [1] (NCIM2079, read-out: MIC); 3.12 µg/mL (≈ 15.1 µM) in assay [2] (NCIM2010, read-out: MIC); 3.12 µg/mL (≈ 15.1 µM) in assay [3] (NCIM2065, read-out: MIC); 1.56 µg/mL (≈ 7.56 µM) in [4] (NCIM2919, read-out: MIC); 6.25 µg/mL (≈ 30.3 µM) in assay [5] (NCIM2112, read-out: MIC); 3.12 µg/mL (≈ 15.1 µM) in assay [6]. The MIC in assay [7] (setting [12]) was 12.5 µg/mL (≈ 60.6 µM); in assay [8] (read-out: MIC (converted)), 6.25 µg/mL (≈ 30.3 µM); in assay [9] (setting [13]) it was 6.25 µg/mL (≈ 30.3 µM); in assay [10], 12.50 µg/mL (≈ 60.6 µM); in assay [10] (BIONCL12, read-out: MIC) it was 12.5 µg/mL (≈ 60.6 µM); in assay [11], 1.56 to 25 µg/mL (≈ 7.56 to 121 µM).

In the case of `CC1=C(O)C(=O)C(O)CO1` (centres unmarked) [C-2, 3,5-dihydroxy-6-methyl-2,3-dihydro-4H-pyran-4-one], the MIC in [1] (NCIM2079, read-out: MIC) amounted to 3.12 µg/mL (≈ 21.6 µM); in [2] (NCIM2010, read-out: MIC), 6.25 µg/mL (≈ 43.4 µM); in assay [3] (NCIM2065, read-out: MIC) it was 6.25 µg/mL (≈ 43.4 µM); in assay [4] (NCIM2919, read-out: MIC), 3.12 µg/mL (≈ 21.6 µM); in assay [5] (NCIM2112, read-out: MIC) it was 6.25 µg/mL (≈ 43.4 µM); in [6], 12.5 µg/mL (≈ 86.7 µM). Further, the MIC in [7] (setting [12]) is 3.12 µg/mL (≈ 21.6 µM); in assay [8] (read-out: MIC (converted)) it was 3.12 µg/mL (≈ 21.6 µM); in [9] (setting [13]), 6.25 µg/mL (≈ 43.4 µM); in assay [10] (BIONCL12, read-out: MIC), 3.12 µg/mL (≈ 21.6 µM); in assay [11] it was 1.56 to 25 µg/mL (≈ 10.8 to 173 µM); in the assay on fungal strains tested it was 3.12 to 6.25 µg/mL (≈ 21.6 to 43.4 µM).

For the molecule `NC(=O)c1cnccn1` [C-3, Pyrazine-2-carboxamide], the MIC was found to be 25 µg/mL (≈ 203 µM) in assay [1] (NCIM2079, read-out: MIC); 25.0 µg/mL (≈ 203 µM) in assay [1]; 25.0 µg/mL (≈ 203 µM) in [2]; 25 µg/mL (≈ 203 µM) in assay [2] (NCIM2010, read-out: MIC); 25.0 µg/mL (≈ 203 µM) in [3]; 25 µg/mL (≈ 203 µM) in assay [3] (NCIM2065, read-out: MIC). Moreover, the MIC in [4] (NCIM2919, read-out: MIC) was determined as 25 µg/mL (≈ 203 µM); in [4], 25.0 µg/mL (≈ 203 µM); in assay [5] (NCIM2112, read-out: MIC), 25 µg/mL (≈ 203 µM); in assay [5], 25.0 µg/mL (≈ 203 µM); in [6], 12.5 µg/mL (≈ 102 µM); in assay [7], 12.5 µg/mL (≈ 102 µM). Further, the MIC in assay [7] (setting [12]) was 12.5 µg/mL (≈ 102 µM); in [8] it was 12.5 µg/mL (≈ 102 µM); in assay [8] (read-out: MIC (converted)), 12.5 µg/mL (≈ 102 µM); in assay [9] (Fusarium graminearum MTCC1893, 48 to 72 h at 28° C.) it was 50.0 µg/mL (≈ 406 µM); in [9] (setting [13]), 25 µg/mL (≈ 203 µM); in [10], 25.0 µg/mL (≈ 203 µM). The MIC in assay [10] (BIONCL12, read-out: MIC) is 25 µg/mL (≈ 203 µM); in [11] it was 1.56 to 25 µg/mL (≈ 12.7 to 203 µM).

(Values after patent US20260231992A1, “A PROCESS FOR MYCOTOXIN DETOXIFICATION USING LACTOCOCCUS LACTIS” (priority 2023, published 2026).)
